Tests used:
[1] = biological target: T1, 5-HT6 receptor (Homo sapiens (Human), UniProt P50406); experiment: Antagonistic activity towards 5-HT6 receptors: inhibition of serotonin-induced intracellular cAMP (LANCE cAMP) in HEK 293 cells; assay type: cell-based; details: for inhibition at 10 µM: HEK293, read-out: % inhibition of 5-HT6 receptors (I, %), 10 μM solutions, serotonin-induced cAMP; for IC50: serotonin-stimulated intracellular cAMP production, read-out: IC50 in the setting of functional assay
Description: Determination of antagonistic activity of compounds of general formula 1 towards 5-HT6 receptors. Compounds of general formula 1 were tested for their ability to prevent 5-HT6 receptor activation by serotonin. HEK 293 cells (cells of human embryo's kidney) with artificially expressed 5-HT6 receptor, activation of which by serotonin leads to increasing the concentration of intracellular cAMP were used. The content of intracellular cAMP was determined using reagent kit LANCE cAMP (PerkinElmer) according to the method described by the manufacturer of the kit [http://las.perkinelmer.com/content/Manuals/MAN_LANCEcAMP384KitUser.pdf].
Effectiveness of compounds was estimated by their ability to reduce the content of intracellular cAMP induced by serotonin.

[2] = biological target: T1, 5-HT6 receptor; experiment: Competitive radioligand binding ([3H] Lysergic acid diethylamide) to serotonin 5-HT6 receptors, HeLa cell membranes; details: 1.5 nM [3H] Lysergic acid diethylamide, 120 min at 37° C.; for IC50: read-out: IC50 in the setting of competitive binding; for Ki: read-out: Ki in the setting of competitive binding
Description: Determination of activity of serotonin 5-HT6 receptor antagonists of the general formula 1 in the setting of competitive binding to serotonin 5-HT6 receptors.
Screening of disclosed compounds for their potential ability to interact with serotonin 5-HT6 receptor was carried out by method of radioligand binding. For this purpose membrane species were prepared from expressing recombinant human 5-HT6 receptor HeLa cells by means of their homogenization in glass homogenizer with subsequent separation of plasmatic membranes from cell nucli, mitochondria's and cell wreckages by differential centrifugation. […] Mol. Pharmacol. 43:320-327, 1993]. […] After incubation the samples were filtered in vacuo on glass-microfiber filters G/F (Millipor, USA), filters were washed three times with cold solution of medium and radioactivity was measured by scintillation counter MicroBeta 340 (PerkinElmer, USA). […] Binding of tested compounds to the receptor was determined by their ability to displace the radioligand and expressed in percent of displacement. The percent of displacement was calculated according to the following equation:
[formula] wherein: TA—was overall radioactivity in the presence of radioligand only, CA—was radioactivity in the presence of radioligand and tested compound and NA—was radioactivity in the presence of radioligand and Serotonin (5 μM).

T1 sequence (P50406 whole entry): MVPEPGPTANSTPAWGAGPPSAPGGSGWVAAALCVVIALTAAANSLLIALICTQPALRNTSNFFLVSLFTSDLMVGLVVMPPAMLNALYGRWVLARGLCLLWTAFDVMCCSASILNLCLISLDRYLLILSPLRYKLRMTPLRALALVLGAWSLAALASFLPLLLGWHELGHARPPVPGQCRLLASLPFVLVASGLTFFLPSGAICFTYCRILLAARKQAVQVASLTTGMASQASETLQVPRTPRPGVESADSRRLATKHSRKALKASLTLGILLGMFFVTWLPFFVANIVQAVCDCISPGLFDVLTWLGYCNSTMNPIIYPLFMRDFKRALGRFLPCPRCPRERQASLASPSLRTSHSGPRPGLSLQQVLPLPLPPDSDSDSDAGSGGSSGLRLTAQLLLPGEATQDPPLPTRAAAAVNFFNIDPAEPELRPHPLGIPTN

Compound | inhibition at 10 µM [1] | IC50 [1] | IC50 [2] | Ki [2]
Cc1cc(C)n2nc(C)c(S(=O)(=O)c3ccc(F)cc3)c2n1 [1.1(21)] | 78% | – | – | –
Cc1cc(C)n2nc(C)c(S(=O)(=O)c3cccc(F)c3)c2n1 [1.1(14)] | 88% | – | – | –
CSc1nn2c(C)cc(C)nc2c1S(=O)(=O)c1ccccc1 [1.1(5), 5,7-dimethyl-2-methylsulfanyl-3-(phenylsulfonyl)pyrazolo[1,5-a]pyrimidine] | 104% | 30 nM | 4.61 nM | 2.14 nM
CSc1nn2c(-c3ccccc3)cc(C)nc2c1S(=O)(=O)c1ccccc1 [1(1)] | 88% | – | – | –
CCSc1nn2c(C)cc(C)nc2c1S(=O)(=O)c1cccc(Cl)c1 [1.1(12), 5,7-dimethyl-2-ethylsulfanyl-3-(3-chlorophenylsulfonyl)pyrazolo[1,5-a]pyrimidine] | 101% | – | – | –
CSc1nn2c(C)cc(C)nc2c1S(=O)(=O)c1ccc(F)c(Cl)c1 [1.1(20)] | 100% | – | – | –
Cc1cc(C)n2nc(OCCO)c(S(=O)(=O)c3ccc(F)cc3)c2n1 [1.1(4)] | 73% | – | – | –
Cc1cc(C)n2nc(C)c(S(=O)(=O)c3ccccc3)c2n1 [1.1(13)] | 86% | – | 147 nM | 68.4 nM
CCSc1nn2c(C)cc(C)nc2c1S(=O)(=O)c1cccc(F)c1 [1.1(10), 5,7-dimethyl-2-ethylsulfanyl-3-(3-fluorophenylsulfonyl)pyrazolo[1,5-a]pyrimidine] | 103% | – | – | –
CSc1nn2c(C)cc(C)nc2c1S(=O)(=O)c1ccc(F)cc1 [1.1(7), 5,7-dimethyl-2-methylsulfanyl-3-(4-fluorophenylsulfonyl)pyrazolo[1,5-a]pyrimidine] | 101% | 112 nM | < 10 nM | –
CCSc1nn2c(C)cc(C)nc2c1S(=O)(=O)c1ccc(OC)cc1 [1.1(18)] | 61% | 320 nM | – | –
CCSc1nn2c(C)cc(C)nc2c1S(=O)(=O)c1ccc(F)cc1 [1.1(8), 5,7-dimethyl-2-ethylsulfanyl-3-(4-fluorophenylsulfonyl)pyrazolo[1,5-a]pyrimidine] | 102% | – | – | –
Cc1cc(C)n2nc(OCCN(C)C)c(S(=O)(=O)c3ccccc3)c2n1 [1.1(22)] | 66% | – | – | –
Cc1cc(C)n2nc(OCCO)c(S(=O)(=O)c3ccccc3)c2n1 [1.1(2)] | 82% | – | 477 nM | 222 nM
Cc1cc(C)n2nc(C)c(S(=O)(=O)c3cccs3)c2n1 [1(4)] | 69% | – | – | –
CSc1nn2c(C)cc(C)nc2c1S(=O)(=O)c1cccc(Cl)c1 [1.1(11), 5,7-dimethyl-2-methylsulfanyl-3-(3-chlorophenylsulfonyl)pyrazolo[1,5-a]pyrimidine] | 101% | 20 nM | – | –
COc1ccc(S(=O)(=O)c2c(SC)nn3c(C)cc(C)nc23)cc1 [1.1(17)] | 65.4% | 440 nM | – | –
Cc1cc(C)n2ncc(S(=O)(=O)c3ccccc3)c2n1 [1.1(1), 5,7-dimethyl-3-(phenylsulfonyl)pyrazolo[1,5-a]pyrimidine] | 78% | > 1000 nM | 510 nM | 237 nM
CSc1nn2c(C)cc(-c3ccccc3)nc2c1S(=O)(=O)c1ccccc1 [1(5)] | 68% | – | – | –
Cc1cc(C)n2nc(C)c(S(=O)(=O)c3ccncc3)c2n1 [1(2)] | 77% | – | – | –
CCSc1nn2c(C)cc(C)nc2c1S(=O)(=O)c1ccccc1 [1.1(6), 5,7-dimethyl-2-ethylsulfanyl-3-(phenylsulfonyl)pyrazolo[1,5-a]pyrimidine] | 104% | 50 nM | – | –
Cc1cc(C)n2nc(C)c(S(=O)(=O)c3cccnc3)c2n1 [1(3)] | 78% | – | – | –
CSc1nn2c(C)cc(C)nc2c1S(=O)(=O)c1cccc(F)c1 [1.1(9), 5,7-dimethyl-2-methylsulfanyl-3-(3-fluorophenylsulfonyl)pyrazolo[1,5-a]pyrimidine] | 100% | 25 nM | – | –
CCSc1nn2c(C)cc(C)nc2c1S(=O)(=O)c1ccc(C)cc1 [1.1(15)] | 99% | 80 nM | – | –
CSc1nn2c(C)cc(C)nc2c1S(=O)(=O)c1ccc(Cl)cc1 [1.1(16)] | 94% | 230 nM | – | –
CSc1nn2c(C)cc(C)nc2c1S(=O)(=O)c1ccc(N(C)C)cc1 [1.1(19)] | 87% | – | – | –

Reference: patent US8552005B2, “(EN) 3-sulfonyl-pyrazolo[1,5-a] pyrimidines / antagonists of serotonin 5-HT6 receptors, methods for the production and the use thereof” (Avincuro Pharmaceuticals, Inc., priority 2008, dated 2013)
